Entries after “also recorded” stand apart in the source; their conditions may differ.
Tests used:
[1] = test system: nuclear export of GFP-GRIM1 (exportin1/Crm1); experiment: Nuclear export of GFP-GRIM1 under leptomycin B; type: cell-based; conditions: 20 nM for 6 h before cell harvesting
[2] = test system: differentiating C2C12 skeletal muscle cells; experiment: GRIM1 relocalization in differentiating C2C12 cells under signal pathway inhibitors; type: cell-based, mouse; conditions: day 0 to day 6 in differentiation medium; Gö6850 1 μM, LY294002 10 μM, Ro31-8220 0.5 μM, PD98059 10 μM, fasudil 10 μM
Method: The cells were cultured in the media recommended by the ATCC on 15 cm cell culture dishes under sterile conditions. Cells are subcultured in a ratio of 1:5 to 1:20 every two to three days and kept at a maximum of 60% confluence. Old medium is removed, and the cells are washed with PBS buffer and treated with trypsin/EDTA solution (0.25% trypsin, 0.04% EDTA in PBS buffer) until they are detached from the culture dish. The cells are isolated in fresh medium and subcultured on new subculture dishes. • PBS buffer: 137 mM NaCl; 2.7 mM KCl; 8 mM Na2HPO4; 1.8 mM KH2PO4 • Media used: DMEM (Gibco BRL), 100 IU penicillin G/ml, 100 μg/ml streptomycin, 2 mM glutamine, 10% fetal calf serum. As differentiation medium for C2C12 and L6 cells, 10% FCS was replaced by 2% horse serum.
Cells are seeded in the desired cell density on autoclaved slides and fixed on the support with 5% paraformaldehyde for 10′. Cell membranes are made permeable for antibodies by incubation in 0.2% TritonX100 for 10′. Before the incubation with the primary antibodies, the cells are blocked in 0.2% gelatin (in PBS) at RT for 1 h. Anti-hsGRIM1 antibodies are diluted 1:500 in 0.2% strength gelatin solution and incubated at RT for 1 h. After washing three times with PBS for 5′ each time, the respective fluorochrome-coupled secondary antibody is added 1:2000 in 0.2% gelatin solution and incubated in the dark at RT for 30′. After the washing steps, the nucleus is counterstained with DAPI (1 μg/ml PBS, Roche Diagnostics) and the cells are finally washed twice in 0.1% TritonX100 in order to minimize autofluorescences. The slides are preserved in Fluoromount M (Southern Biotechnology Associates) and analyzed using a fluorescence microscope.
Treatment of differentiating C2C12 skeletal muscle cells with various inhibitors of central signal transduction pathways have no effect on relocalization or the number of nuclear speckles of GRIM1 within the investigated differentiation from day 0 to day 6 after addition of the differentiation medium. Tested inhibitors: pan-HDAC inhibitors TSA and sodium butyrate, protein kinase inhibitors Gö6850 (specific PKC inhibitor, 1 μM), LY294002 (specific P13kinase inhibitor, 10 μM), Ro31-8220 (PKC broad-spectrum inhibitor, 0.5 μM), PD98059 (MEK1 inhibitor, 10 μM), fasudil (Rock kinase inhibitor, 10 μM), SB203580 (p38α/β inhibitor). Overacetylation and blockade of central signal cascades had drastic morphologically visible consequences for some of the cells, but there was no effect on relocalization or the number of detectable GRIM1 speckles.

[3] = test system: Gal4-RE-controlled complex and synthetic minimal reporter constructs; experiment: Gal4-DBD fusion repression, transient transfection luciferase reporter; type: cell-based; conditions: for effect of HDAC inhibitor on Gal-GRIM1 repression: trichostatin A 300 nM, sodium butyrate 5 mM; for transcriptional repression: Gal4-DBD context, all reporter systems described; for repression potential as Gal4-DBD fusion (in words): transient transfections
Text: To determine the transcriptional properties of hsGRIM1 proteins in eukaryotic cells, pCMX-hsGRIM1 expression plasmids were cotransfected with luciferase (LUC) reporter plasmids. Expression of the particular hsGRIM1 protein in a pCMX expression plasmid is under the control of the cytomegalovirus promoter. Luciferase expression in the LUC reporter plasmids used is controlled either by the thymidine kinase (TK) promoter, an E1b minimal promoter (TATA box), or by the respectively indicated complex promoters.
Transfection takes place by the calcium phosphate method or by the DOTAP liposomes method (Roche Diagnostics, product information). Unless otherwise indicated, 10^5 cells/well were seeded in 1 ml of culture medium in 12-well dishes. In the CaPO4 method, the plasmid DNA to be transfected is coprecipitated with calcium phosphate, and the precipitate is distributed to the cells capable of division. The calcium phosphate precipitate is prepared by preparing the mixture indicated below for duplicates in 12-well dishes:
While agitating (vortexing), 80 μl of 2xBES buffer are slowly and uniformly added dropwise to this mixture. The precipitate is incubated at RT for 10 min and distributed uniformly to the cells (80 μl per well) and, after 8 hours, removed by washing with PBS. The cells are incubated in fresh culture medium for a further 18 to 24 h. • BES buffer (2×): 50 mM N,N-bis[2hydroxyethyl]-2-aminoethanesulfonic acid; 280 mM NaCl; 1.5 mM Na2HPO4.2H2O; pH 6.95
Transiently transfected cells are washed once with PBS and lyzed by adding 50 μl of reporter lysis buffer (Promega) and further disrupted by freezing at −80° C. Cell lysates are transferred into Eppendorf reaction vessels, and cell detritus is pelleted at 14 000 rpm for 2′. 10 μl portions of the lysates are pipetted into 96-well microtiter plates to determine the luciferase activity. The luciferase assay took place in an EG&G Berthold Microluminomat. 40 μl of luciferase assay buffer are injected into the 10 μl of cell lysate, and the resulting chemiluminescence is determined in a time integral of 10″. The measured values for the luciferase activity are related to the amount of protein present in the cell lysate. For this purpose, 3 μl portions of the lysates are mixed in 96-well microtiter plates with 100 μl of Bradford assay reagent (BioRad) diluted 1:5 with H2O, and the absorption of the solution is determined at 595 nm. Relative luciferase activities are found from the ratio of the luciferase activity to the protein absorption. • Luciferase assay buffer: 200 mM tricine; 1.07 mM (MgCO3).4Mg(OH)2; 0.1 M MgSO4, 10 mM EDTA (pH 8.0); 33 mM DTT; […]; […] acetyl-coenzyme A; […] glowworm luciferin.
All the described data were obtained with the hsGRIM1 clone. […] Gal-GRIM1 represses expression of reporter genes both of Gal4-RE-controlled complex and synthetic minimal reporter constructs. The repression potential of GRIM1 is distinctly greater for example compared with the corepressor Gal-SuN-CoR. In these experiments, the appropriate corepressors are transiently expressed as heterologous Gal4-DBD fusion proteins in cells. The repression capacity on various synthetic promoter-reporter constructs compared with equal quantities of transfected wild-type Gal4-DBD is determined by luciferase reporter gene expression (FIG. 8).
Gal-GRIM1 is equally strong as a repressor as a large number of described corepressors such as, for example, Gal-HDAC1-10, Gal-CBF1, Gal-Alien and represses only insignificantly weaker than Gal-N-CoR-RD or Gal-SMRT-RD. The repression potential of Gal-GRIM1 was investigated in conjunction with the complex Gal43x-tk-LUC and Gal-MMTV-LUC promoter/reporter constructs and in conjunction with the minimal promoter/reporter constructs Gal5x-E1b-TATA-box and Gal3x-βglobin-TATA-LUC. […]

androgen receptor (hsAR) = experiment: GRIM1-AR protein-protein interaction (pulldown, co-IP, yTHS); type: binding, human
Method: Further functional characterization of the interaction domains within GRIM1 was carried out by pulldown analyses with the expressible fragments of GRIM1.

[4] = test system: core histones H4, H2B, H2A and H3; experiment: GST pulldown with core histones; type: binding
Method: A protein is expressed as GST fusion protein in E. coli, immobilized on a GST-binding carrier material, and incubated with the potential interactant which is usually radiolabeled. In the subsequent washing steps, proteins which interact only weakly or not at all are washed off the carrier material or the carrier material-bound GST fusion protein. The amount of associated interactant can be determined by fractionation of the proteins by SDS-PAGE and subsequent autoradiography. To check the specificity of interaction between potential interactant and GST fusion protein, the interaction with GST alone is examined.
Aliquots of GST-GRIM1 fragments or GST-containing E. coli crude lysate are mixed in each case with 30 μl of glutathione(GSH)-Sepharose and incubated on a bohemian wheel at 4° C. for 1 h. The GSH-Sepharose is pelleted by centrifugation (1′ at 2000 rpm) and washed twice in pulldown buffer. The pellet is then resuspended in 500 μl of pulldown buffer and incubated with the in vitro translated, […] potential interactant at 4° C. on the bohemian wheel for 1 h. […]

[5] = test system: acetylation of core histones by p300; experiment: INHAT assay (in vitro acetylation of histones by p300); type: biochemical; conditions: core histones H3, H2A, H2B and H4
Method: INHAT assays were carried out as described by Eckner et al. and by Seo et al. (Eckner et al., 1996, Genes and Development 10 (19), pp 2478-2490, Seo et al., 2001, Cell 104 (1), pp 119-130). Histones or histone mixtures are preincubated with the appropriate peptides in a total of 50 μl of HAT buffer, then mixed with bacterially expressed p300 HAT domains and 0.5 μCi of ^14C-acetyl-coenzyme A, and incubated at 30° C. and 1000 rpm for 2 h. Reactions are stopped by adding SDS Laemmli buffer. Proteins are fractionated in denaturing SDS-PAGE, and the gels are incubated in Amplify (NEN) for 1 h. Acetylations are detected in autoradiographies.
It was possible to show in GST pulldown analyses that the N- and C-terminal fragments of hsGRIM1 can associate directly with histones in vitro.

CCC(=C/[C@H](C)C/C=C/C(C)=C/[C@@H](C)C(=O)[C@@H](C)[C@H](O)[C@@H](C)C/C(C)=C/C(=O)O)/C=C/[C@@H]1OC(=O)C=C[C@@H]1C [leptomycin B]
effect on nuclear export of GFP-GRIM1 or GFP-GRIM1 aa234-336 [1]: not influenced

O=S(=O)(c1cccc2cnccc12)N1CCCNCC1 [fasudil]
effect on relocalization or number of nuclear speckles of GRIM1 [2]: no effect

Cn1cc(C2=C(c3cn(CCCSC(=N)N)c4ccccc34)C(=O)NC2=O)c2ccccc21 [Ro31-8220]
effect on relocalization or number of nuclear speckles of GRIM1 [2]: no effect

CN(C)CCCn1cc(C2=C(c3c[nH]c4ccccc34)C(=O)NC2=O)c2ccccc21 [Gö6850]
brought about a change in the transcriptional activity of Gal-GRIM1 ([3]; PKC inhibition or activation, various cell lines): Neither
effect on relocalization or number of nuclear speckles of GRIM1 [2]: no effect

COc1cccc(-c2cc(=O)c3ccccc3o2)c1N [PD98059]
effect on relocalization or number of nuclear speckles of GRIM1 [2]: no effect

O=c1cc(N2CCOCC2)oc2c(-c3ccccc3)cccc12 [LY294002]
effect on relocalization or number of nuclear speckles of GRIM1 [2]: no effect

GST-I: GST-fused hsGRIM1 aa 609-749
interacted with the AR in pulldown (androgen receptor (hsAR); GST fragments, in the sequence M≧H>>I): interacted with the AR
interaction with core histones [4]: marked interaction

CC(/C=C/C(=O)NO)=C\[C@@H](C)C(=O)c1ccc(N(C)C)cc1 [trichostatin A]
effect on general transcription ([3]; cotransfection of full-length p300 and Gal-GRIM1): enhances general transcription
effect of HDAC inhibitor on Gal-GRIM1 repression [3]: not impaired; also recorded: relative repression by Gal-GRIM1 remains unchanged; also recorded: not influenced
effect on relocalization or number of nuclear speckles of GRIM1 [2]: no effect

GRIM1 aa 3-147: recombinantly expressed N-terminal hsGRIM1 fragment, tag not stated
inhibition of histone acetylation by p300 (INHAT activity) [5]: efficiently blocks acetylation

mmGRIM1: mouse GRIM1, 750 amino acids, Seq. ID No. 4
interaction with hsAR (androgen receptor (hsAR); tfIP, utfIP, yTHS, PD and tT): strong direct interaction

GST-E: GST-fused hsGRIM1 aa 3-147
interaction with core histones [4]: marked interaction

CCCC(=O)[O-].[Na+] [sodium butyrate]
effect of HDAC inhibitor on Gal-GRIM1 repression [3]: not impaired
effect on relocalization or number of nuclear speckles of GRIM1 [2]: no effect

CC(C)(O)C(=O)Nc1ccc([N+](=O)[O-])c(C(F)(F)F)c1 [hydroxyflutamide]
influence of AR antagonist on GRIM1-AR interaction (androgen receptor (hsAR)): cannot be influenced

Gal-E: hsGRIM1 aa 3-147 as Gal4-DBD fusion
transcriptional repression [3]: 2 ×
repression potential as Gal4-DBD fusion (in words) [3]: smallest repressive effect

C[S+]([O-])c1ccc(-c2nc(-c3ccncc3)c(-c3ccc(F)cc3)[nH]2)cc1 (centres unmarked) [SB203580]
effect on relocalization or number of nuclear speckles of GRIM1 [2]: no effect

Gal-I: hsGRIM1 aa 609-749 as Gal4-DBD fusion (Table 8; Table 2 differs)
transcriptional repression [3]: 2 ×
repression potential as Gal4-DBD fusion (in words) [3]: smallest repressive effect

Reference: US7981623B2, “Repressor of skeletal muscle differentiation, nucleic acids coding therefor and the use thereof in diagnosis and therapy” (Universitaetsklinikum Freiburg, priority 2002, dated 2011)
